Test results from patent US10881099B2, “Process to improve crop yield” (priority 2016, dated 2021).

Key:
[1] = test system: anthracnose (Colletotrichum acutatum), naturally infected plants; assay: Example 2: pre-plant dip of naturally infected strawberry plants (Nursery 2), field trial; type: in vivo; conditions: cv. Portola (Nursery 2); for DI: Disease incidence (average) / DS: Disease severity, by ranking (average) 0-4 / LSI: Leaf spot incidence (average): after four weeks; for W: Weight (average) / Y: Yield (average): after six weeks
[2] = test system: azoxystrobin (QoI)-sensitive (S) strains of Colletotrichum acutatum; assay: Example 2: pre-plant dip of strawberry plants inoculated with azoxystrobin-sensitive isolate, field trial; type: in vivo; conditions: for DI: Disease incidence (average) / DS: Disease severity, by ranking (average) 0-4: after four weeks; for W: Weight (average) / Y: Yield (average): after six weeks
[3] = test system: azoxystrobin (QoI)-resistant (R) strains of Colletotrichum acutatum; assay: Example 2: pre-plant dip of strawberry plants inoculated with azoxystrobin-resistant isolate, field trial; type: in vivo; conditions: for DI: Disease incidence (average) / DS: Disease severity, by ranking (average) 0-4: after four weeks; for W: Weight (average) / Y: Yield (average): after six weeks
[4] = test system: fungi within the Ascomycota (e.g. Botrytis and Colletotrichum spp.) and Zygomycota (e.g. Rhizopus stolonifer); conditions: for most of these organisms; cited from earlier work
Colletotrichum acutatum = assay: Example 1: pre-plant dip of cv. Portola baby strawberry plants with natamycin, fruit yield after 6 weeks; type: in vivo
Description: Baby strawberry plants of cv. Portola were either inoculated or non-inoculated (naturally infected). Inoculation was done by dipping plants for 4 minutes in conidial suspensions of Colletotrichum acutatum, and then drip-dried. Plants were then stored for 8 h at 20° C., or 3 days at 5° C. […] The plants were then planted in different rows for each treatment, one feet apart and the yield was evaluated for fruit yield after 6 weeks. See below Table 1 for results.

[5] = test system: mixture of four Colletotrichum acutatum isolates, two sensitive and two resistant to QoI fungicides; assay: Example 3: dip treatments on Florida Radiance transplants for control of Colletotrichum acutatum; type: in vivo; conditions: cv. Florida Radiance; for Plant diameter / Plant diameter compared to the non-treated control (in words): 35 DAP; for Yield (marketable fruit): seven harvests
[6] = test system: strawberry plants (two plant cultivars); conditions: in vivo
Description: Plants were evaluated periodically for disease and phytotoxicity over the course of the trial. As plants develop disease symptoms, fungal isolations were done from diseased tissue to validate the symptoms as anthracnose. For this, pieces of crown and leaf tissues from the margins between diseased and healthy tissue were surface-sterilized with sodium hypochlorite and rinsed with sterile, distilled water. A small sample of this plant tissue was removed, cut into pieces, and plated onto 10-cm potato dextrose agar media plates amended with ampicillin and rifampicin to inhibit bacterial growth. Plates were incubated for 5-6 days at 25° C., and fungal colonies were identified using morphological characteristics. A subset of fungal colonies was confirmed by PCR using species-specific primers for Colletotrichum acutatum (Förster and Adaskaveg, Phytopathology (1999) 89 1056-1065).

[7] = 4 min dip, rates/150 gal: Actinovate 24 oz., azoxystrobin 8 fl. oz., Bravo 24 fl. oz., Switch 8 oz.
[8] = rates/150 gal: Actinovate 24 oz., azoxystrobin 8 fl. oz., Bravo 24 fl. oz., Switch 8 oz.
[9] = cv. Fronteras (Nursery 1), 4 min dip, rates/150 gal: Actinovate 24 oz., azoxystrobin 8 fl. oz., Bravo 24 fl. oz., Switch 8 oz.
[10] = cv. Fronteras (Nursery 1), rates/150 gal: Actinovate 24 oz., azoxystrobin 8 fl. oz., Bravo 24 fl. oz., Switch 8 oz.
[11] = cv. Portola (Nursery 1), 4 min dip, rates/150 gal: Actinovate 24 oz., azoxystrobin 8 fl. oz., Bravo 24 fl. oz., Switch 8 oz.
[12] = cv. Portola (Nursery 1), rates/150 gal: Actinovate 24 oz., azoxystrobin 8 fl. oz., Bravo 24 fl. oz., Switch 8 oz.
[13] = natamycin 13.3 oz. per 150 gal.
[14] = natamycin 26.6 oz. per 150 gal.
[15] = cv. Fronteras (Nursery 1), natamycin 13.3 oz. per 150 gal.
[16] = cv. Fronteras (Nursery 1), natamycin 26.6 oz. per 150 gal.
[17] = cv. Portola (Nursery 1), natamycin 13.3 oz. per 150 gal.
[18] = cv. Portola (Nursery 1), natamycin 26.6 oz. per 150 gal.
[19] = natamycin 26.6 fl. oz./100 gal. (dipped in the field)
[20] = natamycin 26.6 fl. oz./100 gal. (dipped indoors to avoid sunlight)

## CO/C=C(/C(=O)OC)c1ccccc1Oc1cc(Oc2ccccc2C#N)ncn1 [Azoxystrobin]
[1]; [7]
  DI: Disease incidence (average): 41.7%
  DS: Disease severity, by ranking (average) 0-4: 0.5
  LSI: Leaf spot incidence (average): 0.5 number of spots
[1]; [8]
  W: Weight (average): 9.8 g per fruit
  Y: Yield (average): 1114.8 g per treated plot
[2]; [9]
  DI: Disease incidence (average): 7.5%
  DS: Disease severity, by ranking (average) 0-4: 0.2
[2]; [10]
  W: Weight (average): 10.68 g per fruit
  Y: Yield (average): 378.1 g per treated plot
[2]; [11]
  DI: Disease incidence (average): 33.1%
  DS: Disease severity, by ranking (average) 0-4: 0.8
[2]; [12]
  W: Weight (average): 6.4 g per fruit
  Y: Yield (average): 157.7 g per treated plot
[3]; [9]
  DI: Disease incidence (average): 100.0%
  DS: Disease severity, by ranking (average) 0-4: 2.9
[3]; [10]
  W: Weight (average): 7.9 g per fruit
  Y: Yield (average): 16.4 g per treated plot
[3]; [11]
  DI: Disease incidence (average): 100.0%
  DS: Disease severity, by ranking (average) 0-4: 4.0
[3]; [12]
  W: Weight (average): 0.0 g per fruit
  Y: Yield (average): 0.0 g per treated plot

## C[C@@H]1C/C=C/C=C/C=C/C=C/[C@H](O[C@@H]2O[C@H](C)[C@@H](O)[C@H](N)[C@@H]2O)C[C@@H]2O[C@](O)(C[C@@H](O)C[C@H]3O[C@@H]3/C=C/C(=O)O1)C[C@H](O)[C@H]2C(=O)O [Natamycin, natamycin]
[4]
  minimum inhibitory concentration: < 10 ppm
[1]; [13]
  DI: Disease incidence (average): 57.5%
  DS: Disease severity, by ranking (average) 0-4: 0.9
  LSI: Leaf spot incidence (average): 0.6 number of spots
  W: Weight (average): 8.7 g per fruit
  Y: Yield (average): 714.4 g per treated plot
[1]; [14]
  DI: Disease incidence (average): 53.7%
  DS: Disease severity, by ranking (average) 0-4: 0.7
  LSI: Leaf spot incidence (average): 0.4 number of spots
  W: Weight (average): 8.7 g per fruit
  Y: Yield (average): 742.5 g per treated plot
[2]; [15]
  DI: Disease incidence (average): 37.5%
  DS: Disease severity, by ranking (average) 0-4: 0.8
  W: Weight (average): 8.14 g per fruit
  Y: Yield (average): 161.8 g per treated plot
[2]; [16]
  DI: Disease incidence (average): 32.5%
  DS: Disease severity, by ranking (average) 0-4: 0.6
  W: Weight (average): 8.31 g per fruit
  Y: Yield (average): 161.1 g per treated plot
[2]; [17]
  DI: Disease incidence (average): 32.5%
  DS: Disease severity, by ranking (average) 0-4: 0.8
  W: Weight (average): 7.9 g per fruit
  Y: Yield (average): 224.1 g per treated plot
[2]; [18]
  DI: Disease incidence (average): 27.5%
  DS: Disease severity, by ranking (average) 0-4: 0.4
  W: Weight (average): 7.0 g per fruit
  Y: Yield (average): 188.4 g per treated plot
Colletotrichum acutatum; natamycin 13.3 oz./150 gallon
  Average weight per individual strawberry: 8.7 g
Colletotrichum acutatum; natamycin 26.6 oz./150 gallon
  Average weight per individual strawberry: 8.7 g
[3]; [15]
  DI: Disease incidence (average): 37.5%
  DS: Disease severity, by ranking (average) 0-4: 0.8
  W: Weight (average): 8.9 g per fruit
  Y: Yield (average): 261.7 g per treated plot
[3]; [16]
  DI: Disease incidence (average): 54.2%
  DS: Disease severity, by ranking (average) 0-4: 1.3
  W: Weight (average): 9.3 g per fruit
  Y: Yield (average): 145.2 g per treated plot
[3]; [17]
  DI: Disease incidence (average): 82.5%
  DS: Disease severity, by ranking (average) 0-4: 2.2
  W: Weight (average): 7.9 g per fruit
  Y: Yield (average): 112.4 g per treated plot
[3]; [18]
  DI: Disease incidence (average): 29.4%
  DS: Disease severity, by ranking (average) 0-4: 0.4
  W: Weight (average): 8.6 g per fruit
  Y: Yield (average): 235.0 g per treated plot
[3]; pre-plant dip
  efficacy when plants are inoculated with azoxystrobin-resistant isolates (in words): very effective
[5]; [19]
  Plant diameter: 5.7 bcd in
  Yield (marketable fruit): 2924 abc lb./A
[5]; [20]
  Plant diameter: 5.9 abc in
  Yield (marketable fruit): 2547 bcde lb./A
[5]; natamycin dipped in the field: excepted from the treatments that significantly increased plant diameter
  Plant diameter compared to the non-treated control (in words): With the exception of natamycin (dipped in the field)
[5]; natamycin: treatment dipped indoors
  Plant diameter compared to the non-treated control (in words): significantly increased plant diameter
[5]; 42 DAP, natamycin 26.6 fl. oz./100 gal. (dipped in the field)
  Disease incidence (diseased plants, dead+wilted): 2.5 de %
[5]; 42 DAP, natamycin 26.6 fl. oz./100 gal. (dipped indoors to avoid sunlight)
  Disease incidence (diseased plants, dead+wilted): 0.0 e %
[5]; 42 DAP, natamycin 26.6 fl. oz./100 gal. (dipped indoors to avoid sunlight), listed as natamycin
  Disease incidence (diseased plants, dead+wilted): 0.0%
[5]; 42 DAP, natamycin: both treatments (field and indoors)
  Disease incidence compared to the non-treated control (in words): reduced disease incidence compared to the non-treated control
[5]; natamycin: dipped in the field
  Yield compared to the non-treated control (in words): higher yields than the non-treated control
[6]
  phytotoxicity: no phytotoxicity is observed
